This is an account of results in PMC9150124, “Design of a Potent, Selective, and Brain-Penetrant Inhibitor of Wnt-Deactivating Enzyme Notum by Optimization of a Crystallographic Fragment Hit” (Journal of Medicinal Chemistry, 2022).

Data set [1] addresses kinase named in conditions (Homo sapiens, UniProt P41743). The experiment in a line: SelectScreen kinase profiling, SSBK ZLyte SP Technology. Type of data set: biochemical. The conditions noted are these: PRKCI (PKC iota), 10 μM. On the procedure: (§1) Kinase selectivity screening was performed by Thermo Fisher Scientific (Paisley, U.K.) in their SelectScreen Biochemical Kinase Profiling Service. Assay information and data are presented in the Supporting Information.
(§2) Kinase selectivity screening was performed by ThermoFisher Scientific (Paisley, U.K.) in their SelectScreenTM
(§3) Biochemical Kinase Profiling service .

The target of data set [2] is kinase named in conditions (Homo sapiens, UniProt P04629). Described as above. In kind it is biochemical. The conditions noted are these: NTRK1 (TRKA), 10 μM. On the procedure:
as §1, §2, §3

Data set [3] addresses kinase named in conditions (Homo sapiens, UniProt P35916). Described as above. Type of data set: biochemical. The conditions noted are these: FLT4 (VEGFR3), 10 μM. On the procedure:
as §1, §2, §3

Data set [4] has as its target kinase named in conditions (Homo sapiens, UniProt P54764). The data set is described as above. In kind it is biochemical. To be noted: EPHA4, 10 μM. On the procedure:
as §1, §2, §3

The target of data set [5] is kinase named in conditions (Homo sapiens, UniProt P12931). The data set is described as above. In kind it is biochemical. The conditions noted are these: SRC, 10 μM. On the procedure:
as §1, §2, §3

Data set [6] addresses kinase named in conditions (Homo sapiens, UniProt Q9P0L2). Described as above. The conditions noted are these: MARK1 (MARK), 10 μM. Type of data set: biochemical. On the procedure:
as §1, §2, §3

Data set [7] addresses kinase named in conditions (Homo sapiens, UniProt P54762). The data set is described as above. In kind it is biochemical. The conditions noted are these: EPHB1, 10 μM. On the procedure:
as §1, §2, §3

Data set [8] deals with kinase named in conditions (Homo sapiens, UniProt O14965). Described as above. Type of data set: biochemical. The conditions noted are these: AURKA (Aurora A), 10 μM. On the procedure: as §1, §2, §3
Data set [9] deals with kinase named in conditions (Homo sapiens, UniProt Q96SB4). The description is as above. Type of data set: biochemical. The conditions noted are these: SRPK1, 10 μM. On the procedure: as §1, §2, §3
Chain of kinase named in conditions (Homo sapiens, UniProt Q96SB4) (Q96SB4 whole entry): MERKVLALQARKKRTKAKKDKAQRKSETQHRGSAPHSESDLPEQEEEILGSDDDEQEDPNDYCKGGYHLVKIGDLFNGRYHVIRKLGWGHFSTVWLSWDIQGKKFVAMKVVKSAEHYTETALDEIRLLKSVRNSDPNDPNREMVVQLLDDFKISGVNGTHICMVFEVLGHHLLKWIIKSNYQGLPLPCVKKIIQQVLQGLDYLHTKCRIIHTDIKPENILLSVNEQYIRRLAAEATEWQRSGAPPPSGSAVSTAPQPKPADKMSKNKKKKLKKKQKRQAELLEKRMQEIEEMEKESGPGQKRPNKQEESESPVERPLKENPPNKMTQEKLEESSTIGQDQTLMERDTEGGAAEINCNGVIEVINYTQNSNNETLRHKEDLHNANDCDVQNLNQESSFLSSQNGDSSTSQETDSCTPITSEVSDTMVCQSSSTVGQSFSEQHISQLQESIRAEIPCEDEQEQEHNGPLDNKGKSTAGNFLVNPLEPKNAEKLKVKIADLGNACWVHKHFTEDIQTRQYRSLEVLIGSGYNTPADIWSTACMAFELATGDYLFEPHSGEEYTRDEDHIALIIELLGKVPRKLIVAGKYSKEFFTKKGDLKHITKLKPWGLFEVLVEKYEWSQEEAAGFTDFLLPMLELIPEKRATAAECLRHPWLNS
In data set [10] the target is kinase named in conditions (Homo sapiens, UniProt O96013). Described as above. The conditions noted are these: PAK4, 10 μM. In kind it is biochemical. On the procedure: as §1, §2, §3
Data set [11] addresses kinase named in conditions (Homo sapiens, UniProt O43293). The description is as above. In kind it is biochemical. The conditions noted are these: DAPK3 (ZIPK), 10 μM. On the procedure:
as §1, §2, §3

For data set [12], the target named is kinase named in conditions (Homo sapiens, UniProt P00519, T315I). Described as above. Type of data set: biochemical. The conditions noted are these: ABL1 T315I, 10 μM. On the procedure:
as §1, §2, §3

Data set [13] has as its target kinase named in conditions (Homo sapiens, UniProt O96017). Described as above. Type of data set: biochemical. The conditions noted are these: CHEK2 (CHK2), 10 μM. On the procedure:
as §1, §2, §3

Data set [14] addresses kinase named in conditions (Homo sapiens, UniProt Q05397). Described as above. In kind it is biochemical. To be noted: PTK2 (FAK), 10 μM. On the procedure:
as §1, §2, §3

Data set [15] has as its target kinase named in conditions (Homo sapiens, UniProt O94806). The data set is described as above. Type of data set: biochemical. To be noted: PRKCN (PKD3), 10 μM. On the procedure:
as §1, §2, §3

For data set [16], the target named is kinase named in conditions (Homo sapiens, UniProt P16591). The data set is described as above. Type of data set: biochemical. The conditions noted are these: FER, 10 μM. On the procedure: as §1, §2, §3
Chain of kinase named in conditions (Homo sapiens, UniProt P16591) (P16591 whole entry): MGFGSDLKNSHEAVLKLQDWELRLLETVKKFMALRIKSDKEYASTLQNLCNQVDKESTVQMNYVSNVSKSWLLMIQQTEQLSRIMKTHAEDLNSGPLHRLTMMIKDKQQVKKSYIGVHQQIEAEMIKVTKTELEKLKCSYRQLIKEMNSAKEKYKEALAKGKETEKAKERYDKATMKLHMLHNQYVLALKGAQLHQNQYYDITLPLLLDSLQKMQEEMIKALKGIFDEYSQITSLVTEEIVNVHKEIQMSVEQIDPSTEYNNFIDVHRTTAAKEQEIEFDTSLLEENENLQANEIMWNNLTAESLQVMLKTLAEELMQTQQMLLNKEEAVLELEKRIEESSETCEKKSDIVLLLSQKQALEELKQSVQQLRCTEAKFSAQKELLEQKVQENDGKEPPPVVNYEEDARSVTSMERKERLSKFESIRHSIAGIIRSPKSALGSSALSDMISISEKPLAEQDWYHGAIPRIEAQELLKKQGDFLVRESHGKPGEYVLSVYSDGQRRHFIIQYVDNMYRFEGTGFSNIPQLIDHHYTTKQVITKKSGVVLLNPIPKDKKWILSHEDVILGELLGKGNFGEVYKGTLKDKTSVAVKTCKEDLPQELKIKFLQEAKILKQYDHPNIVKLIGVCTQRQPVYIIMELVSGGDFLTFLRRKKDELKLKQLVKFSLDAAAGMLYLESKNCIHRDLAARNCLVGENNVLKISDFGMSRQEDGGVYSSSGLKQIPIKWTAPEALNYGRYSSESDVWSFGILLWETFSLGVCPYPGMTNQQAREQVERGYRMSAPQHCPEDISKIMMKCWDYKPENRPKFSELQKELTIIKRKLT
The target in data set [17] is kinase named in conditions (Homo sapiens, UniProt P41279). Described as above. Type of data set: biochemical. The conditions noted are these: MAP3K8 (COT), 10 μM. On the procedure:
as §1, §2, §3

Data set [18] addresses kinase named in conditions (Homo sapiens, UniProt P27361). Described as above. Type of data set: biochemical. To be noted: MAPK3 (ERK1), 10 μM. On the procedure:
as §1, §2, §3

The target of data set [19] is kinase named in conditions (Homo sapiens, UniProt P22607, K650E). The description is as above. Type of data set: biochemical. The conditions noted are these: FGFR3 K650E, 10 μM. On the procedure:
as §1, §2, §3

The target of data set [20] is kinase named in conditions (Homo sapiens, UniProt Q02156). Described as above. Type of data set: biochemical. To be noted: PRKCE (PKC epsilon), 10 μM. On the procedure:
as §1, §2, §3

Data set [21] addresses kinase named in conditions (Homo sapiens, UniProt Q12866). The data set is described as above. In kind it is biochemical. The conditions noted are these: MERTK (cMER), 10 μM. On the procedure: as §1, §2, §3
For data set [22], the target named is kinase named in conditions (Homo sapiens, UniProt Q8TDC3). Described as above. Type of data set: biochemical. The conditions noted are these: BRSK1 (SAD1), 10 μM. On the procedure:
as §1, §2, §3

The nature of data set [23]: Aqueous solubility in PBS (pH 7.4). Type of data set: physicochemical. An excerpt:
Biosciences (Hyderabad, India) or WuXi AppTec (Shanghai, China).
Table S1: Representative assay protocol

In brackets after ≈: the same amount, converted by molar mass. Several values for one entry are separate records, joined by “and”; a condition that tells them apart may be missing. Identical values can stand only once.

Chain of kinase named in conditions (Homo sapiens, UniProt Q8TDC3) (Q8TDC3 whole entry): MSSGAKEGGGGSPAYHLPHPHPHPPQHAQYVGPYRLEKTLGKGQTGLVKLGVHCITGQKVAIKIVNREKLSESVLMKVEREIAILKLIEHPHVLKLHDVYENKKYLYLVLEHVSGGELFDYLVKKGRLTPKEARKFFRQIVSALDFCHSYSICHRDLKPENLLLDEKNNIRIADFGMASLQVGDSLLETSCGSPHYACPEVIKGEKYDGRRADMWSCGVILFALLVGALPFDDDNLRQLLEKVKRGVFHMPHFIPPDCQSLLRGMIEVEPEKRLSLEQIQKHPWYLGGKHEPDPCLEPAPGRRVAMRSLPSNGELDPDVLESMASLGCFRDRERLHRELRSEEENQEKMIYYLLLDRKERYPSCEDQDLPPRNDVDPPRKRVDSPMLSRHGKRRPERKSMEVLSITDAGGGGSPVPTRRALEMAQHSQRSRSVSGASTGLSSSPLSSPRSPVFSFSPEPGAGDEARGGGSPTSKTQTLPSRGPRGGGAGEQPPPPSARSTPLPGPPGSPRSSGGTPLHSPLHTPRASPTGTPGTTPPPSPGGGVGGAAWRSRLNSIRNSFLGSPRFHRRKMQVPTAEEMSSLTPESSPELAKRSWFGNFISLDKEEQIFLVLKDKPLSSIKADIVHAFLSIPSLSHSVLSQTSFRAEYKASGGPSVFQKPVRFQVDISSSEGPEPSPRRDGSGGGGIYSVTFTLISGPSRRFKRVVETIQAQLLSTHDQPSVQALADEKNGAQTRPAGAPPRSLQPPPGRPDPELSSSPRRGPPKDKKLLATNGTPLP
Chain of kinase named in conditions (Homo sapiens, UniProt P12931) (P12931 whole entry): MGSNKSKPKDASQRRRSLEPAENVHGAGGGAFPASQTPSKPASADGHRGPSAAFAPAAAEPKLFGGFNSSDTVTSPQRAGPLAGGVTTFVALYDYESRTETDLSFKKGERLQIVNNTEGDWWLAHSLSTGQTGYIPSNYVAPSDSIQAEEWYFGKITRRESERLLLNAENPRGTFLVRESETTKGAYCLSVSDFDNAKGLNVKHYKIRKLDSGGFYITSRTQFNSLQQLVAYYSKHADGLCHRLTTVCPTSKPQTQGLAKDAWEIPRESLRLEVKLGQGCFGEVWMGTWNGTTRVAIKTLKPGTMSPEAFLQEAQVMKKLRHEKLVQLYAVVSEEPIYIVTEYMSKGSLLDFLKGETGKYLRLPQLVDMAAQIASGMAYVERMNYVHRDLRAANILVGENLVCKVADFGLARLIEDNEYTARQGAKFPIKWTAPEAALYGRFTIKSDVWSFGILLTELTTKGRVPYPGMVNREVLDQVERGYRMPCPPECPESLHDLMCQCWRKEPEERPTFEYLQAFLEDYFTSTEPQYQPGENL
Chain of kinase named in conditions (Homo sapiens, UniProt P41743) (P41743 whole entry): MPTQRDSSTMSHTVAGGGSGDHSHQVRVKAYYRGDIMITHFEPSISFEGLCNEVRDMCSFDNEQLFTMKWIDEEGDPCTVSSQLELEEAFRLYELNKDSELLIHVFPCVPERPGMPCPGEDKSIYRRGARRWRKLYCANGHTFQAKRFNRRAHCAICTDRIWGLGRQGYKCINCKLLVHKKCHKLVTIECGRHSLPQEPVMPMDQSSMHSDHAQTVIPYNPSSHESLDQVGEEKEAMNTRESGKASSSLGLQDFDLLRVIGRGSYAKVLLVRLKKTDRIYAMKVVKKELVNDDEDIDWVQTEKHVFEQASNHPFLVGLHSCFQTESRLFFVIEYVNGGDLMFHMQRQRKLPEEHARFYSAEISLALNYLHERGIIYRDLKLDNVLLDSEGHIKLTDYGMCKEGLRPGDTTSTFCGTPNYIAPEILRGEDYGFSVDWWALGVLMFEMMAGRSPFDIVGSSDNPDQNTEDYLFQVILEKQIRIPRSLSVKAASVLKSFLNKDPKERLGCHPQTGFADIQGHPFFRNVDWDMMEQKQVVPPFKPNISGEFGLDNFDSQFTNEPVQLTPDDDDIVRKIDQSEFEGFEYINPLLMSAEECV
Chain of kinase named in conditions (Homo sapiens, UniProt P35916) (P35916 25-1363): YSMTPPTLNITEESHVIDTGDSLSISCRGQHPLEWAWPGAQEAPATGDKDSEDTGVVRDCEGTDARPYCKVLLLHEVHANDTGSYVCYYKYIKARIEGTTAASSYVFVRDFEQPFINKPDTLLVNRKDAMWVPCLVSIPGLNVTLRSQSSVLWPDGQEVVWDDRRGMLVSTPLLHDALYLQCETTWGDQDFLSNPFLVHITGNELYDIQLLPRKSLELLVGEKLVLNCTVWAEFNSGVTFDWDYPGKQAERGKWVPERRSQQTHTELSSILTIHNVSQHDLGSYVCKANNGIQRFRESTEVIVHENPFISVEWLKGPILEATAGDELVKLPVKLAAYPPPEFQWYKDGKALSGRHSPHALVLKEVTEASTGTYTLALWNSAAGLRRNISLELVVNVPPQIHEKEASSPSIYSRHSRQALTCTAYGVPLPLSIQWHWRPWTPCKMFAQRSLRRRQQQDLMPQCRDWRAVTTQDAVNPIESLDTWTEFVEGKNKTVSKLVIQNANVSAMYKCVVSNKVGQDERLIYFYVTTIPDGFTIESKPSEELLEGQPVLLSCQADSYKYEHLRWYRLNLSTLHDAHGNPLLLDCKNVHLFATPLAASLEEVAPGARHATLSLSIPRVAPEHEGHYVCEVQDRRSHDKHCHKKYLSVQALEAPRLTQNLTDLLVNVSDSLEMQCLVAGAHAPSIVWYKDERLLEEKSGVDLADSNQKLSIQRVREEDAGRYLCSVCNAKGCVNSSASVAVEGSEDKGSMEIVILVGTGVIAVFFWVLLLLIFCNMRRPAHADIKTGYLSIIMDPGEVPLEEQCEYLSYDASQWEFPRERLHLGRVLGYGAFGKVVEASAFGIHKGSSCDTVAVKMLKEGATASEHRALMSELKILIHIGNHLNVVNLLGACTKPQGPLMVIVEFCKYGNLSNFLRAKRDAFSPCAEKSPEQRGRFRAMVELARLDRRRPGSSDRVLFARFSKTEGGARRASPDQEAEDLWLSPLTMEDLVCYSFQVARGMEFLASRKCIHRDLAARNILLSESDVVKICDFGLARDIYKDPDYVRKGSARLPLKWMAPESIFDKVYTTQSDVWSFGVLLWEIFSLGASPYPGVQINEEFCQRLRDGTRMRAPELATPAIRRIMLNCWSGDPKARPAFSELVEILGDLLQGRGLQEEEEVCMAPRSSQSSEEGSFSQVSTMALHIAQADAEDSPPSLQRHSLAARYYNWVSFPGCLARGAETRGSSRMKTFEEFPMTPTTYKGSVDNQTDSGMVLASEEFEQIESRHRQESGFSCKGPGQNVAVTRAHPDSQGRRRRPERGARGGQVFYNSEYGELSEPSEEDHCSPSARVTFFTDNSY

On to `FC(F)(F)c1c(Cl)ccc(-n2ccnn2)c1Cl` [8l, 1-(2,4-Dichloro-3-(trifluoromethyl)phenyl)-1H-1,2,3-triazole], for which the inhibition at 10 µM was 4% in data set [1]; 3% in [2]; 0% in [3]; 1% in data set [4]; 6% in data set [5]; -1% in data set [6]. Further, the inhibition at 10 µM in [7] came out at 3%; in [8], 4%; in [9] it was 2%; in data set [10], 2%; in data set [11] it was 8%; in [12], 0%. The inhibition at 10 µM in data set [13] is 8%; in data set [14], 4%; in data set [15], 6%; in data set [16] it was 2%; in [17], 0%; in [18], 4%. In addition, the inhibition at 10 µM was -5% in data set [19], -1% in data set [20], 5% in data set [21] and 0% in data set [22]. For the same molecule, the solubility in data set [23] (PBS pH 7.4, read-out: aq. solubility) is 68 µg/mL and 240 µM. Moreover, the thermodynamic solubility in data set [23] (PBS, pH 7.4, n = 2, read-out: Thermodynamic Solubility @ RT, mean) is 68 µg/mL (≈ 241 µM).
